How the values were obtained:
Format in all cases: in vivo
[1] = tested on: GlenGlo Peach trees; assay: Peach tree thinning trial, foliage quality rating; conditions: for Foliage Rating: 1 is the best and 3 is the worst
Description: (§1) Thinning trials were conducted in Coloma, Mich. in May 2018. Specifically, 1-amino-1-cyclopropanecarboxylic acid was prepared at 300 and 600 ppm ACC solutions with 0.05% 2-butoxyethanol, poloxalene, monopropylene glycol as a surfactant. These solutions were applied as a foliar spray to GlenGlo Peach trees at pink bud stage, full bloom and after petal fall. Three one year-old shoots were flagged for each treatment on eight replicate trees. Fruit and defoliation were evaluated four weeks after bloom applications and two weeks after the post-petal fall application. […] Thinning activity is expressed as fruit set (the number of large fruit per 100 flowers).

[2] = tested on: peach trees; assay: Thinning trials Greece, Italy and Spain 2020, fruit set, peach sites; conditions: pink bud stage
Description: (§2) Thinning trials were conducted Greece, Italy and Spain in 2020. Specifically, 1-amino-1-cyclopropanecarboxylic acid was prepared at 200, 300, 400, 500, 800 and 1,000 ppm ACC solutions. These solutions were applied as a foliar spray to peach trees (i.e. Spain North, Spain South #1 and Greece #2) and nectarine trees (i.e. Spain South #1 and Greece #1) at pink bud stage. […] Thinning activity is expressed as fruit set (the number of large fruit per 100 flowers).

[3] = tested on: peach and nectarine trees; assay: Thinning trials Greece, Italy and Spain 2020, fruit set, Italy site and average of all sites; conditions: pink bud stage; for % Fruit Set (Avg): average of sites; for reduced fruit set on average over control: vs untreated control
Description: as §2

[4] = tested on: nectarine trees; assay: Thinning trials Greece, Italy and Spain 2020, fruit set, nectarine sites; conditions: pink bud stage
Description: Thinning trials were conducted Greece, Italy and Spain in 2020. Specifically, 1-amino-1-cyclopropanecarboxylic acid was prepared at 200, 300, 400, 500, 800 and 1,000 ppm ACC solutions. These solutions were applied as a foliar spray to peach trees (i.e. […]

[5] = tested on: GlenGlo Peach trees; assay: Peach tree thinning trial, fruit set (Coloma, Mich., 2018); conditions: for reduced fruit set over control: pink bud stage, vs surfactant only control
Description: as §1

[6] = tested on: plum trees (Candy Stripe and Black Majesty); assay: Plum tree thinning trial, fruit set (Chile, 2020); conditions: for % Fruit Set 'Black Majesty': Black Majesty plum; for % Fruit set 'Candy Stripe': Candy Stripe plum; for % Fruit Set (Avg): average of two varieties; for reduced fruit set on average over control: white bud stage, vs untreated control
Description: Thinning trials were conducted Chile in 2020. Specifically, 1-amino-1-cyclopropanecarboxylic acid was prepared at 300 and 450 ppm ACC solutions. These solutions were applied as a foliar spray to two separate varieties of plum trees (i.e. Candy Stripe and Black Majesty) at the white bud stage, the full bloom stage or the petal fall stage. […] Thinning activity is expressed as fruit set (the number of large fruit per 100 flowers).

In the case of `NC1(C(=O)O)CC1` [ACC, 1-amino-1-cyclopropanecarboxylic acid], the “Foliage Rating” value ([1]; 300 ppm ACC, After Petal Fall) is reported as 1.86, the “Foliage Rating” value ([1]; 300 ppm ACC, Full Bloom) is reported as 2.10 and the “Foliage Rating” value ([1]; 300 ppm ACC, Pink Bud Stage) is reported as 1.52. The “Foliage Rating” value ([1]; 600 ppm ACC, After Petal Fall) was 1.90, the “Foliage Rating” value ([1]; 600 ppm ACC, Full Bloom) was 2.67 and the “Foliage Rating” value ([1]; 600 ppm ACC, Pink Bud Stage) was 1.95. For the same compound, the foliage quality ([1]; application at the pink bud stage) was “did not significantly reduce foliage quality”, the “% Fruit Set (Greece #2)” value ([2]; 200 ppm ACC) was 33% and the “% Fruit Set (Spain North)” value ([2]; 200 ppm ACC) was 50%. For the same compound, the “% Fruit Set (Spain South#1)” value ([2]; 200 ppm ACC) was 55%, the “% Fruit Set (Greece #2)” value ([2]; 300 ppm ACC) was 32% and the “% Fruit Set (Spain North)” value ([2]; 300 ppm ACC) was 44%. For the same compound, the “% Fruit Set (Spain South#1)” value ([2]; 300 ppm ACC) was 46%, the “% Fruit Set (Greece #2)” value ([2]; 400 ppm ACC) was 28% and the “% Fruit Set (Spain North)” value ([2]; 400 ppm ACC) was 33%. For the same compound, the “% Fruit Set (Spain South#1)” value ([2]; 400 ppm ACC) was 39%, the “% Fruit Set (Greece #2)” value ([2]; 500 ppm ACC) was 28% and the “% Fruit Set (Spain North)” value ([2]; 500 ppm ACC) was 25%. The “% Fruit Set (Spain South#1)” value ([2]; 500 ppm ACC) was 42%, the “% Fruit Set (Greece #2)” value ([2]; 800 ppm ACC) was 23% and the “% Fruit Set (Spain North)” value ([2]; 800 ppm ACC) was 7%. The “% Fruit Set (Spain South#1)” value ([2]; 800 ppm ACC) was 31%, the “% Fruit Set (Greece #2)” value ([2]; 1,000 ppm ACC) was 21% and the “% Fruit Set (Spain North)” value ([2]; 1,000 ppm ACC) was 7%. The “% Fruit Set (Spain South#1)” value ([2]; 1,000 ppm ACC) was 32%, the “% Fruit Set (Italy)” value ([3]; 200 ppm ACC) was 33% and the “% Fruit Set (Avg)” value ([3]; 200 ppm ACC) was 44%. The “reduced fruit set on average over control” value (shortened to “reduced fruit set on average”) ([3]; 200 ppm) was 18%, the “% Fruit Set (Italy)” value ([3]; 300 ppm ACC) was 32% and the “% Fruit Set (Avg)” value ([3]; 300 ppm ACC) was 40%. For the same compound, the “reduced fruit set on average” value ([3]; 300 ppm) was 30%, the “% Fruit Set (Italy)” value ([3]; 400 ppm ACC) was 34% and the “% Fruit Set (Avg)” value ([3]; 400 ppm ACC) was 35%. For the same compound, the “reduced fruit set on average” value ([3]; 400 ppm) was 49%, the “% Fruit Set (Italy)” value ([3]; 500 ppm ACC) was 32% and the “% Fruit Set (Avg)” value ([3]; 500 ppm ACC) was 33%. The “reduced fruit set on average” value ([3]; 500 ppm) was 58%, the “% Fruit Set (Italy)” value ([3]; 800 ppm ACC) was 32% and the “% Fruit Set (Avg)” value ([3]; 800 ppm ACC) was 25%. For the same compound, the “reduced fruit set on average” value ([3]; 800 ppm) was 108%, the “% Fruit Set (Italy)” value ([3]; 1,000 ppm ACC) was 31% and the “% Fruit Set (Avg)” value ([3]; 1,000 ppm ACC) was 24%. The “reduced fruit set on average” value ([3]; 1,000 ppm) was 117%, the “% Fruit Set (Greece #1)” value ([4]; 200 ppm ACC) was 37% and the “% Fruit Set (Spain South #2)” value ([4]; 200 ppm ACC) was 55%. The “% Fruit Set (Greece #1)” value ([4]; 300 ppm ACC) was 32%, the “% Fruit Set (Spain South #2)” value ([4]; 300 ppm ACC) was 55% and the “% Fruit Set (Greece #1)” value ([4]; 400 ppm ACC) was 28%. For the same compound, the “% Fruit Set (Spain South #2)” value ([4]; 400 ppm ACC) was 48%, the “% Fruit Set (Greece #1)” value ([4]; 500 ppm ACC) was 25% and the “% Fruit Set (Spain South #2)” value ([4]; 500 ppm ACC) was 45%. The “% Fruit Set (Greece #1)” value ([4]; 800 ppm ACC) was 19%, the “% Fruit Set (Spain South #2)” value ([4]; 800 ppm ACC) was 37% and the “% Fruit Set (Greece #1)” value ([4]; 1,000 ppm ACC) was 16%. The “% Fruit Set (Spain South #2)” value ([4]; 1,000 ppm ACC) was 37%, the “% Fruit Set” value ([5]; 300 ppm ACC foliar spray, After Petal Fall) was 57% and the “% Fruit Set” value ([5]; 300 ppm ACC foliar spray, Full Bloom) was 10%. The “% Fruit Set” value ([5]; 300 ppm ACC foliar spray, Pink Bud Stage) was 10%, the “reduced fruit set over control” value ([5]; 300 ppm) was 310% and the “% Fruit Set” value ([5]; 600 ppm ACC foliar spray, After Petal Fall) was 45%. For the same compound, the “% Fruit Set” value ([5]; 600 ppm ACC foliar spray, Full Bloom) was 1%, the “% Fruit Set” value ([5]; 600 ppm ACC foliar spray, Pink Bud Stage) was 6% and the “reduced fruit set over control” value ([5]; 600 ppm) was 583%. For the same compound, the thinning activity ([5]; application after petal fall) was “did not provide effective thinning activity”, the “% Fruit Set 'Black Majesty'” value ([6]; 300 ppm ACC, Full Bloom Stage) was 9% and the “% Fruit set 'Candy Stripe'” value ([6]; 300 ppm ACC, Full Bloom Stage) was 4%. For the same compound, the “% Fruit Set (Avg)” value ([6]; 300 ppm ACC, Full Bloom Stage) was 6.5%, the “% Fruit Set 'Black Majesty'” value ([6]; 300 ppm ACC, Petal Fall Stage) was 8% and the “% Fruit set 'Candy Stripe'” value ([6]; 300 ppm ACC, Petal Fall Stage) was 5%. For the same compound, the “% Fruit Set (Avg)” value ([6]; 300 ppm ACC, Petal Fall Stage) was 6.5%, the “% Fruit Set 'Black Majesty'” value ([6]; 300 ppm ACC, White Bud Stage) was 4% and the “% Fruit set 'Candy Stripe'” value ([6]; 300 ppm ACC, White Bud Stage) was 1%. For the same compound, the “% Fruit Set (Avg)” value ([6]; 300 ppm ACC, White Bud Stage) was 2.5%, the “reduced fruit set on average” value ([6]; 300 ppm) was 21.5% and the “% Fruit Set 'Black Majesty'” value ([6]; 450 ppm ACC, Full Bloom Stage) was 9%. For the same compound, the “% Fruit set 'Candy Stripe'” value ([6]; 450 ppm ACC, Full Bloom Stage) was 4%, the “% Fruit Set (Avg)” value ([6]; 450 ppm ACC, Full Bloom Stage) was 6.5% and the “% Fruit Set 'Black Majesty'” value ([6]; 450 ppm ACC, Petal Fall Stage) was 8%. The “% Fruit set 'Candy Stripe'” value ([6]; 450 ppm ACC, Petal Fall Stage) was 3%, the “% Fruit Set (Avg)” value ([6]; 450 ppm ACC, Petal Fall Stage) was 5.5% and the “% Fruit Set 'Black Majesty'” value ([6]; 450 ppm ACC, White Bud Stage) was 5%. The “% Fruit set 'Candy Stripe'” value ([6]; 450 ppm ACC, White Bud Stage) was 1%, the “% Fruit Set (Avg)” value ([6]; 450 ppm ACC, White Bud Stage) was 3% and the “reduced fruit set on average” value ([6]; 450 ppm) was 21%.

— patent US20230079714A1, “1-AMINO-1-CYCLOPROPANECARBOXYLIC ACID FOR THINNING OF FRUITS” (priority 2021, published 2023)
